Assay results: the NIST ThermoML archive (doi:10.1016/j.tca.2012.01.013)

Assay: refractive index (Na D-line) (dimensionless); xn = mol fraction of the nth substance listed
Settings: 101 kPa, Liquid, Standard Abbe refractometry

COC(=O)c1ccccc1C(=O)OC [dimethyl 1,2-benzenedicarboxylate] + CCCCO
refractive index
Settings | x1 = 0.0997 | x1 = 0.1998 | x1 = 0.2994 | x1 = 0.3999 | x1 = 0.5 | x1 = 0.5985 | x1 = 0.7001 | x1 = 0.8016 | x1 = 0.9002 | x1 = 1
288.15 K | 1.42114 | 1.43796 | 1.45268 | 1.4657 | 1.47709 | 1.48663 | 1.49584 | 1.50398 | 1.51118 | 1.51779
293.15 K | 1.41907 | 1.43584 | 1.45052 | 1.46353 | 1.47491 | 1.48446 | 1.49365 | 1.50183 | 1.50903 | 1.51565
298.15 K | 1.41699 | 1.43374 | 1.44835 | 1.46136 | 1.47274 | 1.48227 | 1.49148 | 1.49966 | 1.50689 | 1.51354
303.15 K | 1.41489 | 1.43158 | 1.44618 | 1.45918 | 1.47057 | 1.4801 | 1.48929 | 1.49753 | 1.50474 | 1.51146
308.15 K | 1.41266 | 1.42932 | 1.44399 | 1.45694 | 1.46834 | 1.47795 | 1.4871 | 1.49537 | 1.50263 | 1.50943
313.15 K | 1.41048 | 1.42712 | 1.4417 | 1.45469 | 1.4662 | 1.47585 | 1.48507 | 1.4933 | 1.50061 | 1.50736
318.15 K | 1.40835 | 1.42501 | 1.43965 | 1.45257 | 1.46395 | 1.47376 | 1.48299 | 1.49121 | 1.49853 | 1.50524
323.15 K | 1.40609 | 1.42274 | 1.4375 | 1.45024 | 1.46165 | 1.47156 | 1.48083 | 1.48906 | 1.4964 | 1.5032
